# Measured values published in ChEMBL document CHEMBL1201862, “PubChem BioAssay data set” (2004).
#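 Growth conditions: 96-well plates. Treatment: test compound, 48 hours, 5 concentrations. Analysis: linear interpolation between bracketing concentrations; unreached endpoints set to highest concentration. GI50 marks 50% less growth.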 Active and inactive are the calls of the source. Cut-off read from the data, not from the text of the source: active = GI50 up to about 1.1 µM and inactive = higher.
# Tests used:
# Experiment in all cases: DTP human tumour cell line panel, 48 h
# A498 = test system: A498
# A549 = test system: A549
# ACHN = test system: ACHN
# CAKI-1 = test system: CAKI-1
# COLO 205 = test system: COLO 205
# HCT-116 = test system: HCT-116
# HCT-15 = test system: HCT-15
# KM12 = test system: KM12
# M14 = test system: M14
# MDA-MB-435 = test system: MDA-MB-435
# MDA-N = test system: MDA-N
# NCI/ADR-RES = test system: NCI/ADR-RES
# OVCAR-3 = test system: OVCAR-3
# OVCAR-8 = test system: OVCAR-8
# SF-295 = test system: SF-295
# SF-539 = test system: SF-539
# SNB-19 = test system: SNB-19
# SNB-75 = test system: SNB-75
# SW-620 = test system: SW-620
# UO-31 = test system: UO-31
Compound,GI50 (A498),GI50 (A549),GI50 (ACHN),GI50 (CAKI-1),GI50 (COLO 205),GI50 (HCT-116),GI50 (HCT-15),GI50 (KM12),GI50 (M14),GI50 (MDA-MB-435),GI50 (MDA-N),GI50 (NCI/ADR-RES),GI50 (OVCAR-3),GI50 (OVCAR-8),GI50 (SF-295),GI50 (SF-539),GI50 (SNB-19),GI50 (SNB-75),GI50 (SW-620),GI50 (UO-31)
Cc1cnc(-n2c(C)nc3cc(Cl)ccc3c2=O)s1,20.4 µM (inactive),32.7 µM (inactive),31 µM (inactive),64.3 µM (inactive),19 µM (inactive),22 µM (inactive),26.2 µM,21.8 µM (inactive),31.6 µM (inactive),28.1 µM (inactive),13 µM (inactive),28 µM (inactive),45.6 µM (inactive),45.7 µM (inactive),37.1 µM (inactive),20.7 µM (inactive),35.1 µM (inactive),10.6 µM (inactive),43 µM (inactive),1.28 µM (inactive)
Cn1c2cn[nH]c(=O)c2c2ccc3ccccc3c21,9.04 µM (inactive),27.7 µM (inactive),16.9 µM (inactive),42.4 µM (inactive),23.9 µM (inactive),29 µM (inactive),23.9 µM,> 100 µM (inactive),> 100 µM (inactive),69.7 µM (inactive),> 100 µM (inactive),84.1 µM (inactive),> 100 µM (inactive),41.6 µM (inactive),18.9 µM (inactive),48.4 µM (inactive),26.5 µM (inactive),16.1 µM (inactive),52.6 µM (inactive),16.1 µM (inactive)
COC(=O)C1=C(C)NC2=C(C(=O)c3ccccc32)C1c1cn(-c2ccccc2)nc1-c1ccccc1 (stereo not given),> 65.9 µM (inactive),12 µM (inactive),17.2 µM (inactive),> 100 µM (inactive),> 100 µM (inactive),12.1 µM (inactive),30.1 µM,7.93 µM (inactive),> 100 µM (inactive),16.6 µM (inactive),> 61.7 µM (inactive),70.6 µM (inactive),> 48.1 µM (inactive),> 100 µM (inactive),34.5 µM (inactive),21.2 µM (inactive),> 48.1 µM (inactive),1.56 µM (inactive),> 100 µM (inactive),3.91 µM (inactive)
O=C(C=P(c1ccccc1)(c1ccccc1)c1ccccc1)c1ccc(-c2cccs2)cc1,0.9 µM (active),3.17 µM (inactive),3.73 µM (inactive),4.91 µM (inactive),0.671 µM (active),3.74 µM (inactive),6.61 µM,4.13 µM (inactive),2.57 µM (inactive),3.08 µM (inactive),3.22 µM (inactive),4.48 µM (inactive),2.9 µM (inactive),4.86 µM (inactive),4.17 µM (inactive),3.97 µM (inactive),2.96 µM (inactive),3.56 µM (inactive),4.33 µM (inactive),3.48 µM (inactive)
CC1=NN(C(=O)CC(=O)NC(=O)/C=C\c2ccccc2)C(=O)C1/N=N/c1ccc([N+](=O)[O-])cc1 (stereo not given),20.5 µM (inactive),84.5 µM (inactive),37.4 µM (inactive),30.6 µM (inactive),> 100 µM (inactive),35.6 µM (inactive),> 100 µM,30 µM (inactive),> 100 µM (inactive),> 100 µM (inactive),> 100 µM (inactive),> 100 µM (inactive),50.7 µM (inactive),> 100 µM (inactive),53.6 µM (inactive),> 100 µM (inactive),> 100 µM (inactive),52.4 µM (inactive),> 100 µM (inactive),48 µM (inactive)
CC(C)(C)c1nc2c(o1)C(=O)c1ccccc1C2=O,6.21 µM (inactive),3.53 µM (inactive),2.28 µM (inactive),2.78 µM (inactive),4.81 µM (inactive),0.838 µM (active),2.48 µM,2.75 µM (inactive),0.759 µM (active),0.185 µM (active),0.199 µM (active),0.447 µM (active),0.721 µM (active),0.92 µM (active),1.93 µM (inactive),1.12 µM (inactive),5.19 µM (inactive),2.96 µM (inactive),1.58 µM (inactive),2.81 µM (inactive)
CCOC(=O)C1=C(C)OC(=O)[C@@]2(OC)C=C(Cl)[C@@]12C,> 100 µM (inactive),> 100 µM (inactive),> 100 µM (inactive),> 100 µM (inactive),> 100 µM (inactive),> 100 µM (inactive),> 100 µM,> 100 µM (inactive),> 100 µM (inactive),> 100 µM (inactive),> 100 µM (inactive),> 100 µM (inactive),> 100 µM (inactive),> 100 µM (inactive),> 100 µM (inactive),> 100 µM (inactive),> 100 µM (inactive),> 100 µM (inactive),> 100 µM (inactive),> 100 µM (inactive)
CCc1nc(N)nc(N)c1-c1ccc(N2CCNCC2)cc1,> 97.1 µM (inactive),54.3 µM (inactive),51.3 µM (inactive),> 97.3 µM (inactive),18.9 µM (inactive),35.2 µM (inactive),54.5 µM,> 95.9 µM (inactive),34.9 µM (inactive),59.8 µM (inactive),64.7 µM (inactive),> 100 µM (inactive),> 83.8 µM (inactive),66.5 µM (inactive),79.6 µM (inactive),77.3 µM (inactive),47.6 µM (inactive),> 100 µM (inactive),56.5 µM (inactive),> 100 µM (inactive)
CC(=O)NC(CS)C(=O)O (stereo not given),3970 µM (inactive),15700 µM (inactive),16600 µM (inactive),6030 µM (inactive),14600 µM (inactive),17600 µM (inactive),12900 µM,33300 µM (inactive),7360 µM (inactive),17800 µM (inactive),> 100 µM (inactive),22600 µM (inactive),16800 µM (inactive),24700 µM (inactive),14600 µM (inactive),26100 µM (inactive),16400 µM (inactive),10700 µM (inactive),11000 µM (inactive),7640 µM (inactive)
